Article PMC5971061, “Differential Effects of Linkers on the Activity of Amphiphilic Tobramycin Antifungals” (Molecules : A Journal of Synthetic Chemistry and Natural …, 2018)
Values after ≈ are worked out from the molar mass of the structure shown. Where two headings read alike, the source gives them in different places.

Columns and labels:
[1] = test system: C. albicans ATCC 64124 (strain B); test: MIC, broth microdilution (CLSI M27-A3), yeast strain B; assay type: cell-based; conditions: Candida albicans, ATCC64124; MIC-0, strain B, 35 °C 48 h
Description: (§1) The final concentrations of compounds 3, 4, 7a, 7b, 9, and 16, as well as that of TOB tested in this study ranged from 0.24–62.5 μg/mL. CAS was used as a positive control and the final concentrations tested for CAS ranged from 0.03–31.3 μg/mL. Briefly, overnight yeast cultures were grown in yeast peptone dextrose (YPD) broth and the cell density was adjusted to an OD600 of 0.12 (~1 × 10^6 CFU/mL) by using a spectrophotometer. Yeast cell suspensions were further diluted to achieve 1–5 × 10^3 CFU/mL in RPMI 1640 medium, and 100 μL of these yeast cells was added to 96-well microtiter plates containing RPMI 1640 medium and titrated compounds. Each test was performed in triplicate. The plates were incubated at 35 °C for 48 h.

[2] = test system: C. albicans ATCC MYA-2876(S) (strain C); test: MIC, broth microdilution (CLSI M27-A3), yeast strain C; assay type: cell-based; conditions: Candida albicans; MIC-0, strain C, 35 °C 48 h
Description: as §1

[3] = test system: C. albicans ATCC 90819(R) (strain D); test: MIC, broth microdilution (CLSI M27-A3), yeast strain D; assay type: cell-based; conditions: Candida albicans, ATCC90819; MIC-0, strain D, 35 °C 48 h
Description: as §1

[4] = test system: Candida glabrata clinical isolate CG2; test: MIC, broth microdilution (CLSI M27-A3), CG2; assay type: cell-based; conditions: Nakaseomyces glabratus; MIC-0, CG2, 35 °C 48 h
Description: as §1

[5] = test system: Candida krusei ATCC 6258 (strain I); test: MIC, broth microdilution (CLSI M27-A3), yeast strain I; assay type: cell-based; conditions: Pichia kudriavzevii, ATCC6258; MIC-0, strain I, 35 °C 48 h
Description: as §1

[6] = test system: Candida parapsilosis clinical isolate CP1; test: MIC, broth microdilution (CLSI M27-A3), CP1; assay type: cell-based; conditions: Lodderomyces parapsilosis; MIC-0, CP1, 35 °C 48 h
Description: as §1

[7] = test system: Candida parapsilosis clinical isolate CP3; test: MIC, broth microdilution (CLSI M27-A3), CP3; assay type: cell-based; conditions: MIC-0, CP3, 35 °C 48 h
Description: as §1

[8] = test system: Cryptococcus neoformans clinical isolate CN2; test: MIC, broth microdilution (CLSI M27-A3), CN2; assay type: cell-based; conditions: MIC-0, CN2, 35 °C 48 h
Description: as §1

[9] = test system: Cryptococcus neoformans clinical isolate CN3; test: MIC, broth microdilution (CLSI M27-A3), CN3; assay type: cell-based; conditions: MIC-0, CN3, 35 °C 48 h
Description: as §1

[10] = test system: Aspergillus flavus ATCC MYA-3631 (strain K); test: MIC, filamentous fungi (CLSI M38-A2), strain K; assay type: cell-based; conditions: MIC-0, strain K, 35 °C 72 h
Description: The spores were harvested from sporulating cultures growing on potato dextrose agar (PDA) by filtration through sterile glass wool and enumerated by using a hemocytometer (Hausser Scientific, Horsham, PA, USA) to obtain the desired inoculum size. Two-fold serial dilutions of compounds 3, 4, 7a, 7b, 9, and 16, as well as CAS and TOB were made in sterile 96-well microtiter plates to obtain the final concentration range of 0.24–62.5 μg/mL for TOB and TOB derivatives as well as 0.03–31.3 μg/mL for CAS in the RPMI 1640 medium. The spore suspensions were added to the wells to afford a final concentration of 5 × 10^5 spores/mL. The plates were incubated at 35 °C for 72 h. […] Each test was performed in triplicate.

Hemolytic activity assay = assay type: cell-based, murine; conditions: mouse, murine red blood cells (mRBCs)
Description: (§2) The hemolytic activity of compounds 3, 4, 7a, 7b, and 9 as well as the parent compound TOB was determined by using previously described methods with minor modifications. Murine whole blood (1 mL) was suspended in 4 mL of PBS and centrifuged at 1000 rpm for 10 min at room temperature to obtain murine red blood cells (mRBCs). The mRBCs were washed four times in PBS and resuspended in the same buffer to a final concentration of 10^7 erythrocytes/mL. Two-fold serial dilutions of compounds 3, 4, 7a, 7b, and 9 were prepared using 100 μL of PBS buffer in Eppendorf tubes followed by the addition of 100 μL of mRBC suspension that made the final concentration of compounds and mRBCs to be 0.48–62.5 μg/mL and 5 × 10^6 erythrocytes/mL, respectively. The tubes were incubated at 37 °C for 1 h. The tubes with PBS buffer (200 μL) and Triton X-100® (1% v/v, 2 μL) served as the negative (blank) and positive controls, respectively. The percentage of hemolysis was calculated using the following equation: % hemolysis = [(absorbance of sample) − (absorbance of blank)] × 100/(absorbance of positive control).

[11] = test system: murine red blood cells (mRBCs); test: Hemolytic activity assay; assay type: cell-based; conditions: at 3.9 μg/mL, 2- to 8-fold their MIC values against the three C. neoformans clinical isolates
Description: as §2

A549 cell line = test: In vitro cytotoxicity assay (resazurin), A549; assay type: cell-based, human; conditions: Homo sapiens; A549, 24 h, resazurin
Description: Mammalian cytotoxicity assays were performed as previously described with minor modifications. The normal human bronchial epithelial cells BEAS-2B and the human lung carcinoma epithelial cells A549 were grown in DMEM containing 10% fetal bovine serum (FBS) and 1% antibiotics. The confluent cells were then trypsinized with 0.05% trypsin and 0.53 mM EDTA, and resuspended in fresh DMEM medium. The cells were transferred into 96-well microtiter plates at a density of 3000 cells/well and were grown for 24 h. The following day, the medium was replaced by a fresh culture medium containing serially diluted compounds 3, 4, 7a, 7b, and 9, as well as the parent drug TOB at final concentrations of 0.48–62.5 μg/mL or sterile ddH2O (negative control). The cells were incubated for an additional 24 h at 37 °C with 5% CO2 in a humidified incubator. To evaluate cell survival, each well was treated with 10 μL (25 μg/mL) of resazurin sodium salt (Sigma-Aldrich) for 4–6 h. Metabolically active cells can convert resazurin (blue) to the highly fluorescent dye resorufin (pink), which was detected at λ560 excitation and λ590 emission wavelengths by using a SpectraMax M5 plate reader. Triton X-100® (1% v/v) gave the complete loss of cell viability and was used as the positive control. The percentage survival rates were calculated by using the following formula: % cell survival = [(fluorescence of sample) − (fluorescence of blank)] × 100/[(fluorescence of negative control) − (fluorescence of blank)].

- MIC [1]: 3.9 µg/mL (≈ 5.68 µM)
- MIC [2]: 15.6 µg/mL (≈ 22.7 µM)
- MIC [3]: 15.6 µg/mL (≈ 22.7 µM)
- MIC [4]: 3.9 µg/mL (≈ 5.68 µM)
- MIC [5]: 3.9 µg/mL (≈ 5.68 µM)
- MIC [6]: 3.9 µg/mL (≈ 5.68 µM)
- MIC [7]: 7.8 µg/mL (≈ 11.4 µM)
- MIC [8]: 0.48 µg/mL (≈ 0.699 µM)
- MIC [9]: 0.975 µg/mL (≈ 1.42 µM)
- MIC ([10]; Aspergillus flavus, 72 h, read-out: MIC): 7.8 to 31.3 µg/mL (≈ 11.4 to 45.6 µM)
- MIC [10]: 7.8 µg/mL (≈ 11.4 µM)
Compound: CCCCCCCCCCCCc1cn(C[C@H]2O[C@H](O[C@@H]3[C@@H](O)[C@H](O[C@H]4O[C@H](CN)[C@@H](O)C[C@H]4N)[C@@H](N)C[C@H]3N)[C@H](O)[C@@H](N)[C@@H]2O)nn1 [Compound 7b, O-3-Amino-3,6-dideoxy-6-(4-dodecyl-1H-1,2,3-triazol-1-yl)-α-D-glucopyranosyl-(1→6)-O-[2,6-diamino-2,3,6-trideoxy-α-D-ribo-hexopyranosyl-(1→4)]-2-deoxy-D-streptamine]
- hemolysis at 1 h, 0.48 μg/mL (Hemolytic activity assay; 0.48 μg/mL, mRBCs, 37 °C 1 h, ± SDEV): 0%
- hemolysis at 1 h, 0.975 μg/mL (Hemolytic activity assay; 0.975 μg/mL, mRBCs, 37 °C 1 h, ± SDEV): 0%
- hemolysis at 1 h, 1.95 μg/mL (Hemolytic activity assay; 1.95 μg/mL, mRBCs, 37 °C 1 h, ± SDEV): 14.8 ± 3.5%
- hemolysis at 1 h, 3.9 μg/mL (Hemolytic activity assay; 3.9 μg/mL, mRBCs, 37 °C 1 h, ± SDEV): 13.4 ± 6.2%
- hemolysis at 1 h, 7.8 μg/mL (Hemolytic activity assay; 7.8 μg/mL, mRBCs, 37 °C 1 h, ± SDEV): 24.6 ± 8.1%
- hemolysis at 1 h, 15.6 μg/mL (Hemolytic activity assay; 15.6 μg/mL, mRBCs, 37 °C 1 h, ± SDEV): 40.8 ± 5.4%
- hemolysis at 1 h, 31.3 μg/mL (Hemolytic activity assay; 31.3 μg/mL, mRBCs, 37 °C 1 h, ± SDEV): 55.5 ± 5.4%
- hemolysis at 1 h, 62.5 μg/mL (Hemolytic activity assay; 62.5 μg/mL, mRBCs, 37 °C 1 h, ± SDEV): 74.1 ± 0.8%
- hemolysis at 1 h (Hemolytic activity assay; at their MIC values against the Aspergillus strains): 12 to 74%
- mRBCs lysed [11]: up to 13%
- IC50 (A549 cell line): > 62.5 µg/mL
